Test results reported in patent publication US8563556B2, “Crystalline forms and two solvated forms of 4-amino-5-fluoro-3-[5-(4-methylpiperazin-1-yl)-1H-benzimidazol-2-yl]quinolin-2(1H)-one lactic acid salts” (Novartis AG, priority 2008, dated 2013).
Counter-ions that a name gives are not always drawn. Like-named read-outs stand apart in the source and are kept apart here.

Legend:
[1] = Heat of solution in water at 25° C.; format: physicochemical
[2] = Solubility of crystalline forms in solvents; format: physicochemical; conditions: for Solubility, Butanol: solvent butanol

Compound	Heat of solution in water (endothermic) [1]	Solubility, Acetone ([2]; solvent acetone, temperature not given)	Solubility, Butanol ([2]; temperature not given)	Solubility, Ethanol ([2]; solvent ethanol, temperature not given)	Solubility, Isopropanol ([2]; solvent isopropanol, temperature not given)	Solubility, Water ([2]; solvent water, temperature not given)	Heat of solution in water (endothermic) ([1]; listed as Form B)	solubility ([2]; acetone, organic solvent or mixture, solvent acetone, temperature not given, read-out: Solubility, Acetone)	solubility ([2]; ethanol, organic solvent or mixture, solvent ethanol, temperature not given, read-out: Solubility, Ethanol)	solubility ([2]; isopropanol, organic solvent or mixture, solvent isopropanol, temperature not given, read-out: Solubility, Isopropanol)	solubility ([2]; water, solvent water, temperature not given, read-out: Solubility, Water)	solubility ([2]; 0.1 N HCl, 25 °C, simulated gastric fluid, HCl 0.1N, 25° C., read-out: Solubility at 25° C., HCl 0.1N)	solubility ([2]; ethanol, 25 °C, organic solvent or mixture, ethanol, 25° C., read-out: Solubility at 25° C., ethanol)	Solubility at 25° C., water ([2]; water, 25° C.)
CN1CCN(c2ccc3nc(-c4c(N)c5c(F)cccc5[nH]c4=O)[nH]c3c2)CC1 [Anhydrous form A, 4-amino-5-fluoro-3-[5-(4-methylpiperazin-1-yl)-1H-benzimidazol-2-yl]quinolin-2(1H)-one lactic acid salt]	1.1 kcal/mol	840 µg/mL	950 µg/mL	840 µg/mL	160 µg/mL	107000 µg/mL	–	–	–	–	–	–	–	–
CN1CCN(c2ccc3nc(-c4c(N)c5c(F)cccc5[nH]c4=O)[nH]c3c2)CC1 [Anhydrous form II, 4-Amino-5-fluoro-3-[5-(4-methylpiperazin-1-yl)-1H-benzimidazol-2-yl]quinolin-2(1H)-one lactate anhydrous form II]	–	–	340 µg/mL	–	–	–	2.2 kcal/mol	510 µg/mL	710 µg/mL	80 µg/mL	68000 µg/mL	–	–	–
CN1CCN(c2ccc3nc(-c4c(N)c5c(F)cccc5[nH]c4=O)[nH]c3c2)CC1 [hemi-pentahydrate, 4-Amino-5-fluoro-3-[5-(4-methylpiperazin-1-yl)-1H-benzimidazol-2-yl]quinolin-2(1H)-one lactate hemi-pentahydrate]	7.17 kcal/mol	–	–	–	–	–	–	–	–	–	–	55000 µg/mL	2000 µg/mL	6200 µg/mL
